Counter-ions that a name gives are not always drawn.

This assay deals with T1, human Glucose-dependent Insulinotropic Polypeptide Receptor (hGIPR) (Homo sapiens, UniProt P48546).
T1 sequence (P48546 22-466): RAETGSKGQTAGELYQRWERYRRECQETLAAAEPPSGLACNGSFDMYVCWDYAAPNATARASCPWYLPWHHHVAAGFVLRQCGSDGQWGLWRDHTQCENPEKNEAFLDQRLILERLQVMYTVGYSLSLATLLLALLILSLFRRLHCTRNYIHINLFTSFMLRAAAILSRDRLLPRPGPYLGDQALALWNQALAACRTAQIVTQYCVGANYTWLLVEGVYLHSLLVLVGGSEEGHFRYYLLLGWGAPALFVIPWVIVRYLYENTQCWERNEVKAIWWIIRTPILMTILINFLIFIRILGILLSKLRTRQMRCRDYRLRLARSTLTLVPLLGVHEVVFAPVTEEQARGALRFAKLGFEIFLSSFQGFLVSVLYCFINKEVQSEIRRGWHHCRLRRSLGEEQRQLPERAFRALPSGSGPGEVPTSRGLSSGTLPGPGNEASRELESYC
Put plainly: Functional in vitro GIPR antagonist potency assay (cAMP HTRF, CHO-K1 cells stably expressing hGIPR, hGIP stimulation at about EC80). Format: cell-based. The note with it: geometric mean, hGIP at estimated EC80, examples marked ^2: overall geometric mean of multiple forms (including salts) tested. In short, it runs like this:
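CHO-K1 cells expressing hGIPR (2,000 per well) in HBSS/HEPES/0.1% BSA with 200 μM IBMX were preincubated 2 h at 37 °C with an 11-point compound series (0.5% DMSO). hGIP at about EC80 was then added for 30 min, and cAMP was read by HTRF (665/620 nm). Data were normalized between hGIP alone and full antagonism by a reference antagonist at 80 μM.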
As for `CC(C)Cc1ccc(CNC(=O)N2CCC[C@@H]2C(=O)Nc2ccc(-c3ccc(C(=O)O)cc3)cc2)cc1` [Example 137, 4′-{[1-{{[4-(2-methylpropyl)phenyl]methyl}carbamoyl)-D-prolyl]amino}[1,1′-biphenyl]-4-carboxylic acid], the IC50 was 9.8 nM.
The value for `O=C(O)c1ccc(-c2ccc(NC(=O)[C@H]3CCCN3C(=O)NCc3cc(F)c(Cl)cc3F)cc2)cc1` [Example 138, 4′-[(1-{[(4-chloro-2,5-difluorophenyl)methyl]carbamoyl}-D-prolyl)amino][1,1′-biphenyl]-4-carboxylic acid] was 42 nM; that for `O=C(O)c1ccc(-c2ccc(NC(=O)[C@H]3CCCN3C(=O)NCc3ccc(C(F)(F)F)cc3Cl)cc2)cc1` [Example 139, 4′-{[1-({[2-chloro-4-(trifluoromethyl)phenyl]methyl}carbamoyl)-D-prolyl]amino}[1,1′-biphenyl]-4-carboxylic acid] was 93 nM.
For `O=C(O)c1ccc(-c2ccc(NC(=O)[C@H]3CCCN3C(=O)Nc3ccc(C4CC4)cc3F)cc2)cc1` [Example 140, 4′-({1-[(4-cyclopropyl-2-fluorophenyl)carbamoyl]-D-prolyl}amino)[1,1′-biphenyl]-4-carboxylic acid] the value was 67 nM.
The value for `O=C(O)c1ccc(-c2ccc(NC(=O)[C@H]3CCCN3C(=O)NCc3ccc(C(F)F)cc3)cc2)cc1` [Example 141, 4′-{[1-({[4-(difluoromethyl)phenyl]methyl}carbamoyl)-D-prolyl]amino}[1,1′-biphenyl]-4-carboxylic acid] was 97 nM.
As for `Cc1cc(C2CC2)ccc1NC(=O)N1CCC[C@@H]1C(=O)Nc1ccc(-c2ccc(C(=O)O)cc2)cc1` [Example 142, 4′-({1-[(4-cyclopropyl-2-methylphenyl)carbamoyl]-D-prolyl}amino)[1,1′-biphenyl]-4-carboxylic acid], the half-inhibitory concentration (IC50) is 130 nM.
For `COc1cc(NC(=O)N2CCC[C@@H]2C(=O)Nc2ccc(-c3ccc(C(=O)O)cc3)cc2)ccc1C(F)(F)F` [Example 143, 4′-[(1-{[3-methoxy-4-(trifluoromethyl)phenyl]carbamoyl}-D-prolyl)amino][1,1′-biphenyl]-4-carboxylic acid] the value was 35 nM; for `Cc1cc(NC(=O)N2CCC[C@@H]2C(=O)Nc2ccc(-c3ccc(C(=O)O)cc3)cc2)ccc1C1CC1` [Example 144, 4′-({1-[(4-cyclopropyl-3-methylphenyl)carbamoyl]-D-prolyl}amino)[1,1′-biphenyl]-4-carboxylic acid], 6.1 nM; for `Cc1cc(NC(=O)N2CCC[C@@H]2C(=O)Nc2ccc(-c3ccc(C(=O)O)cc3)cc2)cnc1C(C)C` [Example 145, 4′-[(1-{[5-methyl-6-(propan-2-yl)pyridin-3-yl]carbamoyl}-D-prolyl)amino][1,1′-biphenyl]-4-carboxylic acid, trifluoroacetate salt], 70 nM.
Turning to `Cc1cc(NC(=O)N2CCC[C@@H]2C(=O)Nc2ccc(-c3ccc(C(=O)O)cc3)cc2)ncc1C(C)C` [Example 146, 4′-[(1-{[4-methyl-5-(propan-2-yl)pyridin-2-yl]carbamoyl}-D-prolyl)amino][1,1′-biphenyl]-4-carboxylic acid, trifluoroacetate salt], the IC50 was 9.7 nM.
The value for `CC(c1ccc(NC(=O)N2CCC[C@@H]2C(=O)Nc2ccc(-c3ccc(C(=O)O)cc3)cc2)cc1)C(F)(F)F` (stereo partly drawn) [Example 147, 4′-[(1-{[4-(1,1,1-trifluoropropan-2-yl)phenyl]carbamoyl}-D-prolyl)amino][1,1′-biphenyl]-4-carboxylic acid] was 13 nM; that for `CC(C)c1ccc(NC(=O)N2CCC[C@@H]2C(=O)Nc2ccc(-c3cccc(C(N)=O)c3)cc2)cc1` [Example 148, (2R)-N^2-(3′-carbamoyl[1,1′-biphenyl]-4-yl)-N^1-[4-(propan-2-yl)phenyl]pyrrolidine-1,2-dicarboxamide] was 240 nM.
The value for `O=C(O)c1ccc(-c2ccc(NC(=O)[C@H]3CCCN3C(=O)Nc3ccc(C4CC4)c(F)c3)cc2)cc1` [Example 149, 4′-({1-[(4-cyclopropyl-3-fluorophenyl)carbamoyl]-D-prolyl}amino)[1,1′-biphenyl]-4-carboxylic acid] was 21 nM; that for `Cc1cc(NC(=O)[C@H]2CCCN2C(=O)Nc2ccc(C(C)C)cc2)cnc1-c1ccc(C(=O)O)cc1` [Example 150, 4-{3-methyl-5-[(1-{[4-(propan-2-yl)phenyl]carbamoyl}-D-prolyl)amino]pyridin-2-yl}benzoic acid] was 86 nM; that for `COc1cc(C(=O)O)ccc1-c1ccc(NC(=O)[C@H]2CCCN2C(=O)Nc2ccc(C(C)C)cc2)nc1` [Example 151, 3-methoxy-4-{6-[(1-{[4-(propan-2-yl)phenyl]carbamoyl}-D-prolyl)amino]pyridin-3-yl}benzoic acid] was 110 nM.
For `CC(C)c1ccc(NC(=O)N2CCC[C@@H]2C(=O)Nc2ccc3cc(C(=O)O)ccc3c2)cc1F` [Example 152, 6-[(1-{[3-fluoro-4-(propan-2-yl)phenyl]carbamoyl}-D-prolyl)amino]naphthalene-2-carboxylic acid] the value was 44 nM; for `O=C(O)c1ccc(-c2ccc(NC(=O)[C@H]3CCCN3C(=O)NCc3ccc(C(F)(F)F)cc3)nc2)cc1` [Example 153, 4-(6-{[1-({[4-(trifluoromethyl)phenyl]methyl}carbamoyl)-D-prolyl]amino}pyridin-3-yl)benzoic acid], 11 nM.
Turning to `CC(C)c1ccc(NC(=O)N2C[C@H]3C[C@H]3[C@@H]2C(=O)Nc2ccc(-c3cccc(C(=O)O)c3)cc2)cc1` [Example 154, 4′-{[(1R,2R,5S)-3-{[4-(propan-2-yl)phenyl]carbamoyl}-3-azabicyclo[3.1.0]hexane-2-carbonyl]amino}[1,1′-biphenyl]-3-carboxylic acid], the concentration for half-maximal inhibition (IC50) is 58 nM.
In the case of `O=C(O)c1ccc(-c2ccc(NC(=O)[C@H]3CCCN3C(=O)Nc3ccc(CC(F)(F)F)cc3)cc2)cc1` [Example 155, 4′-[(1-{[4-(2,2,2-trifluoroethyl)phenyl]carbamoyl}-D-prolyl)amino][1,1′-biphenyl]-4-carboxylic acid], the IC50 is 22 nM.
The value for `COc1cc(C(=O)O)ccc1-c1ccc(NC(=O)[C@H]2CCCN2C(=O)Nc2ccc(C(C)C)c(C)c2)nc1` [Example 156, 3-methoxy-4-{6-[(1-{[3-methyl-4-(propan-2-yl)phenyl]carbamoyl}-D-prolyl)amino]pyridin-3-yl}benzoic acid] was 45 nM; that for `O=C(O)c1ccc(-c2ccc(NC(=O)[C@H]3CCCN3C(=O)NCc3ccc(C(F)(F)F)cc3)cc2)cc1` [Example 157, 4′-{[1-({[4-(trifluoromethyl)phenyl]methyl}carbamoyl)-D-prolyl]amino}[1,1′-biphenyl]-4-carboxylic acid] was 10 nM; that for `COc1cc(-c2ccc(NC(=O)[C@H]3CCCN3C(=O)Nc3ccc(C(F)(F)F)c(C)c3)cc2)ccc1C(=O)O` [Example 158, 3-methoxy-4′-[(1-{[3-methyl-4-(trifluoromethyl)phenyl]carbamoyl}-D-prolyl)amino][1,1′-biphenyl]-4-carboxylic acid] was 7.7 nM.
For the molecule `CC(C)c1ccc(NC(=O)N2C[C@@H]3C[C@@H]3[C@@H]2C(=O)Nc2ccc(-c3cccc(C(=O)O)c3)cc2)cc1` [Example 159, 4′-{[(1S,2R,5R)-3-{[4-(propan-2-yl)phenyl]carbamoyl}-3-azabicyclo[3.1.0]hexane-2-carbonyl]amino}[1,1′-biphenyl]-3-carboxylic acid], the IC50 is 110 nM.
The value for `Cc1cc(NC(=O)[C@H]2CCCN2C(=O)Nc2ccc(C3CCC3)cc2)cnc1-c1ccc(C(=O)O)cc1` [Example 160, 4-[5-({1-[(4-cyclobutylphenyl)carbamoyl]-D-prolyl}amino)-3-methylpyridin-2-yl]benzoic acid] was 75 nM; that for `O=C(O)c1ccc2cc(NC(=O)[C@H]3CCCN3C(=O)Nc3ccc(C(F)(F)F)cc3)ccc2c1` [Example 161, 6-[(1-{[4-(trifluoromethyl)phenyl]carbamoyl}-D-prolyl)amino]naphthalene-2-carboxylic acid] was 77 nM.
The value for `Cc1cc(NC(=O)N2CCC[C@@H]2C(=O)Nc2ccc3cc(C(=O)O)ccc3c2)ccc1C(C)C` [Example 162, 6-[(1-{[3-methyl-4-(propan-2-yl)phenyl]carbamoyl}-D-prolyl)amino]naphthalene-2-carboxylic acid] was 44 nM; that for `Cc1cc(NC(=O)N2CCC[C@@H]2C(=O)Nc2ccc(-c3ccc(C(=O)O)cc3)nc2)ccc1C(F)(F)F` [Example 163, 4-{5-[(1-{[3-methyl-4-(trifluoromethyl)phenyl]carbamoyl}-D-prolyl)amino]pyridin-2-yl}benzoic acid] was 19 nM.
Consider `C[C@H](NC(=O)N1CCC[C@@H]1C(=O)Nc1ccc(-c2ccc(C(=O)O)cc2)cc1)c1ccc(C(F)(F)F)cc1` [Example 164, 4′-{[1-({(1S)-1-[4-(trifluoromethyl)phenyl]ethyl}carbamoyl)-D-prolyl]amino}[1,1′-biphenyl]-4-carboxylic acid], for which the half-inhibitory concentration (IC50) is 22 nM.

The record behind these values is patent publication US20240366598A1, “GLUCOSE-DEPENDENT INSULINOTROPIC POLYPEPTIDE RECEPTOR ANTAGONISTS AND USES THEREOF” (Pfizer Inc., priority 2023, published 2024).
